The record followed here is BindingDB's records for doi:10.1016/s0960-894x(98)00676-3 (Tokushima Bunri University, 1999).

Structures are written as SMILES. Counter-ions that a name gives are not always drawn.

For the test, the target named is Arachidonate 5-lipoxygenase (Rattus norvegicus). Briefly: Evaluated for inhibitory activity against RBL-1 cell 5-lipoxygenase in rat.
By IC50 is commonly meant the concentration that gives 50% inhibition. High values mean weaker potency in that assay, low ones greater potency in that assay. Consider `Cc1cc(OCCN2CCN(C(c3ccccc3)c3ccccc3)CC2)c(C)c(C)c1O` [4-[2-(4-Benzhydryl-piperazin-1-yl)-ethoxy]-2,3,6-trimethyl-phenol; hydrochloride], for which the midpoint of inhibition, the IC50, lay at 820 nM.
The same measure for `Cc1cc(OCCCN2CCN(C(c3ccccc3)c3ccccc3)CC2)c(C)c(C)c1O` [4-[3-(4-Benzhydryl-piperazin-1-yl)-propoxy]-2,3,6-trimethyl-phenol; hydrochloride]: 426 nM; for `Cc1cc(OCCCCN2CCN(C(c3ccccc3)c3ccccc3)CC2)c(C)c(C)c1O` [4-[4-(4-Benzhydryl-piperazin-1-yl)-butoxy]-2,3,6-trimethyl-phenol; hydrochloride]: 358 nM; for `Cc1cc(OCCCCCCCCN2CCN(C(c3ccccc3)c3ccccc3)CC2)c(C)c(C)c1O` [4-[8-(4-Benzhydryl-piperazin-1-yl)-octyloxy]-2,3,6-trimethyl-phenol; hydrochloride]: 1060 nM.
